Columns and labels:
B1 bradykinin receptor = target: T1, B1 bradykinin receptor (Homo sapiens, UniProt P46663)
T1 sequence (P46663 whole entry): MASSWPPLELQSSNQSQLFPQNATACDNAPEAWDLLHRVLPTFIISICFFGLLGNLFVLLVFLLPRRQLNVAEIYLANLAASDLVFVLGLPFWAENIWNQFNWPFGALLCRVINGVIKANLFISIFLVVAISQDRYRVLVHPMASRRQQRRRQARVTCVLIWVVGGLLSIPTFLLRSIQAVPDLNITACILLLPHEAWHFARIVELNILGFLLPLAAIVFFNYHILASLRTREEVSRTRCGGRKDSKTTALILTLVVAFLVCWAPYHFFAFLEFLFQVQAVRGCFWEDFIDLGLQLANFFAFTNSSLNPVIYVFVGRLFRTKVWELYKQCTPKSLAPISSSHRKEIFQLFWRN

[1] = target: 5-hydroxytryptamine receptor 2B (Homo sapiens, UniProt P41595)
Chain of 5-hydroxytryptamine receptor 2B (P41595 whole entry): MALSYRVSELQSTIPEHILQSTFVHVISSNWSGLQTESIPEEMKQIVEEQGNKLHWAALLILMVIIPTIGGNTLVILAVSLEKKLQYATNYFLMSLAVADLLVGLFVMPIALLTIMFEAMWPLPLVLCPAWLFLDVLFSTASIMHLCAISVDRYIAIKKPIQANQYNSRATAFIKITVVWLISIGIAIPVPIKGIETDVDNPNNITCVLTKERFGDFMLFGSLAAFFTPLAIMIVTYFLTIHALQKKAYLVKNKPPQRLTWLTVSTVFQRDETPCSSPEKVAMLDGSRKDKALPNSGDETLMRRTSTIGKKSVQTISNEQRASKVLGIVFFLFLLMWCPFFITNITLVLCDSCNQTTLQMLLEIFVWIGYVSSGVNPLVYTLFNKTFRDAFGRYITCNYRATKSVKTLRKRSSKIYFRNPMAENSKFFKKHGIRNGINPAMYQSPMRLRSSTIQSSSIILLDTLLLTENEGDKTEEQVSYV

[2] = target: Muscarinic acetylcholine receptor M3 (Homo sapiens, UniProt P20309)
Chain of Muscarinic acetylcholine receptor M3 (P20309 whole entry): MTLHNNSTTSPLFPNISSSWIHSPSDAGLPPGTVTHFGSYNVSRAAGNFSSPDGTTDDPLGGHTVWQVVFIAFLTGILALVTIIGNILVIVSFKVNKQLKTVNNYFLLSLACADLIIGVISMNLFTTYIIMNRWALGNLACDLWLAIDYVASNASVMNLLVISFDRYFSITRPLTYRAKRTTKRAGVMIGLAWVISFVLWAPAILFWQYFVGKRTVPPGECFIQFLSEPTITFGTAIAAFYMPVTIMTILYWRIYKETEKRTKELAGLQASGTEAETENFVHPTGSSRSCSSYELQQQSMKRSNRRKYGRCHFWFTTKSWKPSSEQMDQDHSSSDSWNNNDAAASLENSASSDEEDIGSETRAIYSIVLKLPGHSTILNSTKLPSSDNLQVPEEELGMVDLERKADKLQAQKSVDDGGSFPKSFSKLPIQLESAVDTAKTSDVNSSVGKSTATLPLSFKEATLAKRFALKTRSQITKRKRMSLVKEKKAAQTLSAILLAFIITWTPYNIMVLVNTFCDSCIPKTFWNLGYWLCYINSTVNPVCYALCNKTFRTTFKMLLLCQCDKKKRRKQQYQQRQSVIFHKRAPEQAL

[3] = target: T2, Muscarinic acetylcholine receptor M1 (Homo sapiens, UniProt P11229); assay type: functional
T2 sequence (P11229 whole entry): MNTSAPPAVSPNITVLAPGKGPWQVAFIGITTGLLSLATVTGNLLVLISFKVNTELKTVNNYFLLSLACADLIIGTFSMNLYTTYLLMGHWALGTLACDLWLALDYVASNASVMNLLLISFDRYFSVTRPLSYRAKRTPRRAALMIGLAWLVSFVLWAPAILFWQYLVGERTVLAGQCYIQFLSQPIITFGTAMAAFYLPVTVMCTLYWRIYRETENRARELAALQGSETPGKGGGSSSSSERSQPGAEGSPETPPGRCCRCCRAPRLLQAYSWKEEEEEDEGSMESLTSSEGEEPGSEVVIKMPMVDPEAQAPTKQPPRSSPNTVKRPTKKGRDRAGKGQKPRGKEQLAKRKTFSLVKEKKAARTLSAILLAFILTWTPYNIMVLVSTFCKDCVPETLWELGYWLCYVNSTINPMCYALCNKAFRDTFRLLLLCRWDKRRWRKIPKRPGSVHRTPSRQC

[4] = target: T3, 5-hydroxytryptamine receptor 2A (Homo sapiens, UniProt P28223); assay type: functional, cell-based
T3 sequence (P28223 whole entry): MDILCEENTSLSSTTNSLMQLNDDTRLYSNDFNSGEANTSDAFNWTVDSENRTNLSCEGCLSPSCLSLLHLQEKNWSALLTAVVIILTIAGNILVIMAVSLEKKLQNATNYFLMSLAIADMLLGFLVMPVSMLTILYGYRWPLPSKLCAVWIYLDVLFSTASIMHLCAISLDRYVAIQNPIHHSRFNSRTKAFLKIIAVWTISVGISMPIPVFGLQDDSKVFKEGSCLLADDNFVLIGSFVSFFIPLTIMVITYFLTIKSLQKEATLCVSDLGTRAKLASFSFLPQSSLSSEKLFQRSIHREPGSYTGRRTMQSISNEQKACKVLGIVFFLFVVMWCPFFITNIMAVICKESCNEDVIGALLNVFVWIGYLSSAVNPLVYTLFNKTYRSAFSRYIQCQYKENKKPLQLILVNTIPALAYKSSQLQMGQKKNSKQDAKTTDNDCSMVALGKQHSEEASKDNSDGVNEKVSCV

Androgen receptor = target: T4, Androgen receptor (Homo sapiens, UniProt P10275)
T4 sequence (P10275 whole entry): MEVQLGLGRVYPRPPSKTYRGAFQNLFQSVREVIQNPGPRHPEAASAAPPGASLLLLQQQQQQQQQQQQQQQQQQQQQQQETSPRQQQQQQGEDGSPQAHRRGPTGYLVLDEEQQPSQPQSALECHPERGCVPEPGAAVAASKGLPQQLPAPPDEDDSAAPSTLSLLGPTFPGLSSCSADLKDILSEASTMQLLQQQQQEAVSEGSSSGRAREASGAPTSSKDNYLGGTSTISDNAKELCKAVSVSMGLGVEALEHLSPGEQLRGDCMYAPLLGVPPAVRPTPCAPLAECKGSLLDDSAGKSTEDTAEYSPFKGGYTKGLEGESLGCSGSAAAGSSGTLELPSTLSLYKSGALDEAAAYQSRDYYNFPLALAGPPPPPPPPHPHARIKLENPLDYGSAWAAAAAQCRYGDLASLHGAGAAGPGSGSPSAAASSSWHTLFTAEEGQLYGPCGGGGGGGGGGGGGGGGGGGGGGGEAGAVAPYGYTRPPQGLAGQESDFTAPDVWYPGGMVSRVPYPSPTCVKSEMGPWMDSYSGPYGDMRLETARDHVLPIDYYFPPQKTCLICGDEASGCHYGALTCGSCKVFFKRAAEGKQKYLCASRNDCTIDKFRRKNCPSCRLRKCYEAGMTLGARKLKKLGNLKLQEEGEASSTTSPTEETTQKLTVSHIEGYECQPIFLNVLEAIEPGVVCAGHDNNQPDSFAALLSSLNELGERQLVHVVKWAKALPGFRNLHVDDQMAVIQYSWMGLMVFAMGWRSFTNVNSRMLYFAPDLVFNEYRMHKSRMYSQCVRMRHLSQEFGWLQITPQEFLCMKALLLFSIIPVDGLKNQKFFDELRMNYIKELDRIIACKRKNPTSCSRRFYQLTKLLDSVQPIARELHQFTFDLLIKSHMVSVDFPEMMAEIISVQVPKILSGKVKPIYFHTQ

Glucocorticoid receptor = target: T5, Glucocorticoid receptor (Homo sapiens, UniProt P04150)
T5 sequence (P04150 whole entry): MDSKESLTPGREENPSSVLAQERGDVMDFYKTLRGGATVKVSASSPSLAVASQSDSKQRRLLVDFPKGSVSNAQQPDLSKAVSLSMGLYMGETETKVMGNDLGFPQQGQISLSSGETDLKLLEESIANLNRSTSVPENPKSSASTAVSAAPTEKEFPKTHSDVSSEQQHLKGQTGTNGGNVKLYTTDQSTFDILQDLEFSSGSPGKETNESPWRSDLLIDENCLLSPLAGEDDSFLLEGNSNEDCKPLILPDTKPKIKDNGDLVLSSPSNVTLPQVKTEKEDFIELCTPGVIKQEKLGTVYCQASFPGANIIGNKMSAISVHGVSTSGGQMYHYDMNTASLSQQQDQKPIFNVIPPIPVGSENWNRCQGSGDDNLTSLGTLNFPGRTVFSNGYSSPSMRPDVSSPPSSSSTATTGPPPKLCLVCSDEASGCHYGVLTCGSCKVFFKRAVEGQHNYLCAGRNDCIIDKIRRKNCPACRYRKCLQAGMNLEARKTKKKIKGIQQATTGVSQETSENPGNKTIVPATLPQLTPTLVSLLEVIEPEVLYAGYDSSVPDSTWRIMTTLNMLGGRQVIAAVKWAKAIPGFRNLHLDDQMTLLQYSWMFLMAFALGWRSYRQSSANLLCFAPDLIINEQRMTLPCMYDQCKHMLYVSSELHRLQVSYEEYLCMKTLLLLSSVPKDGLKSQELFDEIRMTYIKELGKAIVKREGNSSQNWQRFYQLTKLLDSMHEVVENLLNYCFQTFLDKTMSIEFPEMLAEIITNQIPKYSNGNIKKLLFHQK

[5] = target: T3, 5-hydroxytryptamine receptor 2A; assay type: functional, cell-based; remark: listed apart in the source
Note: assay procedure not described here.

| Compound | AC50 (B1 bradykinin receptor) [µM] | AC50 [1] [µM] | AC50 [2] [µM] | AC50 [3] [µM] | AC50 [4] [µM] | AC50 (Androgen receptor) [µM] | AC50 (Glucocorticoid receptor) [µM] | AC50 [5] [µM] |
| --- | --- | --- | --- | --- | --- | --- | --- | --- |
| CO[C@H]1/C=C/O[C@@]2(C)Oc3c(C)c(O)c4c(O)c(c(/C=N/N5CCN(C)CC5)c(O)c4c3C2=O)NC(=O)/C(C)=C\C=C\[C@H](C)[C@H](O)[C@@H](C)[C@@H](O)[C@@H](C)[C@H](OC(C)=O)[C@@H]1C [RIFAMPIN] | 14.2 | > 10 | – | – | – | – | – | – |
| N[C@@H](CC(=O)N1CCn2c(nnc2C(F)(F)F)C1)Cc1cc(F)c(F)cc1F [SITAGLIPTIN] | > 10 | > 10 | > 30 | > 30 | – | – | – | – |
| CC(=O)O[C@]1(C(C)=O)CC[C@H]2[C@@H]3C=C(C)C4=CC(=O)CC[C@@H]4[C@H]3CC[C@@]21C [NOMEGESTROL ACETATE] | – | – | > 30 | > 30 | > 30 | 0.02 | 0.067 | > 30 |
| CC(C)Cc1ccc(C(C)C(=O)O)cc1 (configuration not stated) [IBUPROFEN] | > 30 | > 10 | – | – | – | – | > 30 | – |
| COc1cc2nc(N3CCN(C(=O)C4CCCO4)CC3)nc(N)c2cc1OC (configuration not stated) [TERAZOSIN] | > 30 | > 10 | – | – | – | – | > 30 | – |
| CC(C)N(CCC(C(N)=O)(c1ccccc1)c1ccccn1)C(C)C (configuration not stated) [DISOPYRAMIDE] | > 30 | – | > 30 | > 10 | – | – | – | – |
| Nc1ccc(S(=O)(=O)Nc2nccs2)cc1 [SULFATHIAZOLE] | > 30 | > 10 | – | – | – | – | > 30 | – |
| C=CC[C@@H]1/C=C(\C)C[C@H](C)C[C@H](OC)[C@H]2O[C@@](O)(C(=O)C(=O)N3CCCC[C@H]3C(=O)O[C@H](/C(C)=C/[C@@H]3CC[C@@H](O)[C@H](OC)C3)[C@H](C)[C@@H](O)CC1=O)[C@H](C)C[C@@H]2OC [TACROLIMUS ANHYDROUS] | > 30 | > 10 | – | – | – | – | > 30 | – |
| CN(C)CCc1c[nH]c2ccc(Cn3cncn3)cc12 [RIZATRIPTAN] | > 30 | 12 | > 30 | > 30 | 7.75 | – | – | – |
| COc1ccccc1Oc1c(NS(=O)(=O)c2ccc(C(C)(C)C)cc2)nc(-c2ncccn2)nc1OCCO [BOSENTAN] | > 30 | > 10 | > 30 | > 10 | – | – | > 30 | – |
| Cc1onc(-c2ccccc2)c1-c1ccc(S(N)(=O)=O)cc1 [VALDECOXIB] | > 30 | > 10 | – | – | – | – | > 30 | – |
| CCCN(CCC)C(=O)Cc1c(-c2ccc(Cl)cc2)nc2ccc(Cl)cn12 [ALPIDEM] | > 10 | > 10 | > 30 | > 30 | – | – | – | – |
| C[C@H]1c2cccc(O)c2C(=O)C2=C(O)[C@]3(O)C(=O)C(C(N)=O)=C(O)[C@@H](N(C)C)[C@@H]3[C@@H](O)[C@@H]21 [DOXYCYCLINE] | > 30 | > 10 | – | – | – | – | – | – |
| CCCC(CCC)C(=O)O [VALPROIC ACID] | > 30 | > 10 | – | – | – | – | > 30 | – |
| COc1ccccc1OCCNCC(O)COc1cccc2[nH]c3ccccc3c12 (configuration not stated) [CARVEDILOL] | > 30 | 0.0101 | – | – | – | – | > 30 | – |

Source: ChEMBL document CHEMBL5291721, “A preclinical secondary pharmacology resource illuminates target-adverse drug reaction associations of marketed drugs” (Nat Commun, 2023)
